By IC50 is commonly meant the concentration that inhibits the measured activity by half. For orientation: AC50 means the concentration giving half of the maximal activity seen.

From US20250082633A1, “COMPOUNDS AND METHODS FOR MODULATING SPLICING” (REMIX THERAPEUTICS INC., priority 2021, published 2025) come the findings set out here.

The structures appear in SMILES notation. Like-named read-outs stand apart in the source and are kept apart here. A value given as a limit tells only on which side of the number the result lay.

Common to all, as to format: cell-based
In one test the test system is MYB mRNA. Put plainly: RT-qPCR splicing assay, MYB canonical (CJ) and alternative (AJ) junction mRNA. Particulars: Homo sapiens; for IC50: read-out: MYB CJ IC50; for AC50: read-out: MYB AJ AC50. In outline: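 Splice-junction mRNAs (CJ, AJ) measured by TaqMan one-step RT-qPCR on cell lysates, using PPIA as reference for adherent A673 and GAPDH or GUSB for K562. Cells exposed for 24 h to 11 threefold concentrations up to 10 uM final, with DMSO at or below 0.25%.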

For a further test, the system named is Target C. Put plainly: RT-qPCR splicing assay, gene panel, Target C canonical junction (CJ) mRNA. Particulars: Homo sapiens, read-out: Target C CJ IC50. The method, boiled down: (§1)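 A673 (DMEM/10% FBS) or K562 (IMDM/10% FBS) cells were treated 24 h at 37 °C with an 11-point 3-fold dilution series, top final 10 uM, DMSO ≤0.25%. Lysates underwent one-step RT-qPCR for the canonical-junction isoform with GAPDH, GUSB or PPIA as housekeeper. ΔΔCt versus DMSO was converted to RQ (2^−ΔΔCt), then to percent response.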
In general terms: In qPCR the cycle at which signal appears reflects the starting amount.

A further test has as its system SMN2 mRNA. The experiment in a line: RT-qPCR splicing assay, gene panel, SMN2 canonical junction (CJ) mRNA. Particulars: Homo sapiens, read-out: SMN2 CJ IC50. In outline:
as §1

Where [1] appears, read: decrease in CJ mRNA levels, larger panel of genes, Table 3.
Where [2] appears, read: decrease in canonical junction mRNA, A673 or K562 cells, 24 hours treatment, Table 2.
[3] abbreviates: increase in alternative junction mRNA, A673 or K562 cells, 24 hours treatment, Table 2.

In the case of `Cc1cn2nc(-c3cc(F)c4nn([C@@H]5CCNC6(CC6)C5)cc4c3)cc(C)c2n1` [Compound 173], the IC50 in the test with MYB mRNA (setting [1]) is 100 to 1000 nM; in the test with MYB mRNA (setting [2]), 100 to 1000 nM; with Target C (setting [1]) it was 100 to 1000 nM; in the test on SMN2 mRNA (setting [1]) it was under 100 nM. Besides, in the test on MYB mRNA (setting [3]), the AC50 lay within 100 to 1000 nM.

With `Cc1cn2nc(-c3ccc4nn(C5CCNCC5)cc4n3)cc(C)c2n1` [Compound 138, 2,8-dimethyl-6-[2-(4-piperidyl)pyrazolo[4,3-b]pyridin-5-yl]imidazo[1,2-b]pyridazine], the IC50 was 100 to 1000 nM in the test with MYB mRNA (setting [1]), 100 to 1000 nM with MYB mRNA (setting [2]), 100 to 1000 nM in the test on Target C (setting [1]) and under 100 nM in the test on SMN2 mRNA (setting [1]). Further, in the test with MYB mRNA (setting [3]), the AC50 lay within 1000 to 10000 nM.

As to `Cc1cn2nc(-c3cc(F)c4nn(CC5CCNCC5)cc4c3)cc(C)c2n1` [Compound 212, 6-[7-fluoro-2-(4-piperidylmethyl)indazol-5-yl]-2,8-dimethyl-imidazo[1,2-b]pyridazine], the IC50 was 100 to 1000 nM in the test on MYB mRNA (setting [1]), 100 to 1000 nM in the test on MYB mRNA (setting [2]), 100 to 1000 nM in the test on Target C (setting [1]) and under 100 nM with SMN2 mRNA (setting [1]). Also, the AC50 in the test on MYB mRNA (setting [3]) is 100 to 1000 nM.

As to `Cc1cn2nc(-c3cc4cn(C5CCNCC5)nc4c(OCc4ccccc4)n3)cc(C)c2n1` [Compound 153, 6-[7-benzyloxy-2-(4-piperidyl)pyrazolo [3,4-c]pyridin-5-yl]-2,8-dimethyl-imidazo[1,2-b]pyridazine], the IC50 with MYB mRNA (setting [1]) was 1000 to 10000 nM; in the test on MYB mRNA (setting [2]), 1000 to 10000 nM; in the test on Target C (setting [1]), over 10000 nM; in the test with SMN2 mRNA (setting [1]), over 10000 nM. Moreover, the AC50 in the test with MYB mRNA (setting [3]) was over 10000 nM.

As for `Cc1cn2nc(-c3cc(F)c4nn(C5CCN(C6CCC6)C6(CC6)C5)cc4c3)cc(C)c2n1` (stereo not drawn) [Compound 186, 6-[2-(4-cyclobutyl-4-azaspiro[2.5]octan-7-yl)-7-fluoro-indazol-5-yl]-2,8-dimethyl-imidazo[1,2-b]pyridazine], the AC50 in the test with MYB mRNA (24 h) lay within 100 to 1000 nM. Further, the IC50 in the test on MYB mRNA (24 h) was 100 to 1000 nM; with MYB mRNA, 100 to 1000 nM; with Target C, under 100 nM; in the test with SMN2 mRNA, under 100 nM.

For the compound `Cc1cn2nc(-c3cc(F)c4nn(C5CCN(C)CC5)cc4c3)cc(C)c2n1` [Compound 150, 6-[7-fluoro-2-(1-methyl-4-piperidyl)indazol-5-yl]-2,8-dimethyl-imidazo[1,2-b]pyridazine], the IC50 in the test on MYB mRNA (setting [1]) is 100 to 1000 nM; in the test with MYB mRNA (setting [2]) it was 100 to 1000 nM; in the test on Target C (setting [1]), 100 to 1000 nM; in the test with SMN2 mRNA (setting [1]) it was under 100 nM. Also, in the test with MYB mRNA (setting [3]), the AC50 lay within 100 to 1000 nM.

With `Cc1cn2nc(-c3cc(F)c4nn(C5CCNC6(CCC6)C5)cc4c3)cc(C)c2n1` (stereo not drawn) [Compound 189, 6-[2-(5-azaspiro[3.5]nonan-8-yl)-7-fluoro-indazol-5-yl]-2,8-dimethyl-imidazo[1,2-b]pyridazine], the IC50 was 100 to 1000 nM in the test on MYB mRNA (setting [1]), 100 to 1000 nM in the test on MYB mRNA (setting [2]), 100 to 1000 nM in the test on Target C (setting [1]) and under 100 nM in the test on SMN2 mRNA (setting [1]). For the same compound, the AC50 in the test with MYB mRNA (setting [3]) is 100 to 1000 nM.

Take `Cc1cn2nc(-c3cc4cn(C5CCNCC5)nc4cc3O)cc(C)c2n1` [Compound 154, 5-(2,8-dimethylimidazo[1,2-b]pyridazin-6-yl)-2-(piperidin-4-yl)-2H-indazol-6-ol]: the IC50 with MYB mRNA (setting [1]) is 100 to 1000 nM; in the test with MYB mRNA (setting [2]), 100 to 1000 nM; in the test with Target C (setting [1]), 100 to 1000 nM; in the test with SMN2 mRNA (setting [1]) it was under 100 nM. In addition, in the test on MYB mRNA (setting [3]), the AC50 fell in the range of 100 to 1000 nM.

For `Cn1cc2cc(-c3cc(F)c4nn(C5CCNC6(CC6)C5)cc4c3)cc(F)c2n1` (stereo not drawn) [Compound 108, 2-(4-azaspiro[2.5]octan-7-yl)-7-fluoro-5-(7-fluoro-2-methyl-indazol-5-yl)indazole], the IC50 lay within 100 to 1000 nM with MYB mRNA (setting [1]), 100 to 1000 nM in the test on MYB mRNA (setting [2]), 1000 to 10000 nM with Target C (setting [1]) and 100 to 1000 nM in the test on SMN2 mRNA (setting [1]). Further, the AC50 in the test on MYB mRNA (setting [3]) lay within 1000 to 10000 nM.

For `Cc1cn2nc(-c3cc(F)c4nn([C@H]5CCNC[C@@H]5F)cc4c3)cc(C)c2n1` [Compound 167, 6-(7-fluoro-2-((3S,4S)-3-fluoropiperidin-4-yl)-2H-indazol-5-yl)-2,8-dimethylimidazo[1,2-b]pyridazine], the IC50 in the test with MYB mRNA (setting [1]) was 1000 to 10000 nM; in the test on MYB mRNA (setting [2]), 1000 to 10000 nM; in the test with Target C (setting [1]), 100 to 1000 nM; in the test with SMN2 mRNA (setting [1]) it was under 100 nM. The AC50 with MYB mRNA (setting [3]) was 1000 to 10000 nM.

Consider `Cc1ccc2cc(-c3cc(F)c4nn(C5CCNCC5)cc4c3)ccc2n1` [Compound 163, 6-[7-fluoro-2-(4-piperidyl)indazol-5-yl]-2-methyl-quinoline], for which the IC50 in the test with MYB mRNA (setting [1]) is over 10000 nM; in the test with MYB mRNA (setting [2]) it was over 10000 nM; in the test with Target C (setting [1]) it was over 10000 nM; in the test on SMN2 mRNA (setting [1]), 1000 to 10000 nM. Further, the AC50 with MYB mRNA (setting [3]) is over 10000 nM.

`Cc1c(O)c(-c2cc(F)c3nn(C4CCNCC4)cc3c2)cc2cn(C)nc12` [Compound 126, 5-[7-fluoro-2-(4-piperidyl)indazol-5-yl]-2,7-dimethyl-indazol-6-ol]: the concentration for half-maximal inhibition (IC50) was over 10000 nM in the test on MYB mRNA (setting [1]), over 10000 nM in the test on MYB mRNA (setting [2]), 1000 to 10000 nM with Target C (setting [1]) and 1000 to 10000 nM in the test on SMN2 mRNA (setting [1]). In the test with MYB mRNA (setting [3]), the AC50 is over 10000 nM.

With `Cc1cn2nc(-c3cc(F)c4nn([C@H]5CCNC6(CC6)C5)cc4c3)cc(C)c2n1` [Compound 172], the IC50 in the test on MYB mRNA (setting [1]), in the test on MYB mRNA (setting [2]), in the test with Target C (setting [1]) and in the test with SMN2 mRNA (setting [1]) was under 100 nM in each case. Also, the AC50 with MYB mRNA (setting [3]) is under 100 nM.

Regarding `Cc1nc2c(C)cc(-c3cc(F)c4nn(C5CCNCC5)cc4c3)cc2o1` [Compound 137, 6-[7-fluoro-2-(4-piperidyl)indazol-5-yl]-2,4-dimethyl-1,3-benzoxazole], the IC50 in the test with MYB mRNA (setting [1]) is 100 to 1000 nM; with MYB mRNA (setting [2]), 100 to 1000 nM; in the test on Target C (setting [1]), 100 to 1000 nM; in the test on SMN2 mRNA (setting [1]) it was under 100 nM. The AC50 in the test on MYB mRNA (setting [3]) fell in the range of 100 to 1000 nM.

For the compound `CCN1CCC(n2cc3cc(-c4cc(F)c5nn(C)cc5c4)cc(F)c3n2)CC1` [Compound 104, 2-(1-ethyl-4-piperidyl)-7-fluoro-5-(7-fluoro-2-methyl-indazol-5-yl)indazole], the IC50 was 1000 to 10000 nM with MYB mRNA (setting [1]), 1000 to 10000 nM in the test with MYB mRNA (setting [2]), 1000 to 10000 nM in the test with Target C (setting [1]) and under 100 nM in the test with SMN2 mRNA (setting [1]). In addition, in the test with MYB mRNA (setting [3]), the concentration at half-maximal activity (AC50) is 1000 to 10000 nM.

In the case of `COC1=C(C)C2N=C(C)OC2C=C1c1cc(F)c2nn(C3CCNCC3)cc2n1` (stereo not drawn) [Compound 144], the 50% inhibitory concentration (IC50) with MYB mRNA (setting [1]) is over 10000 nM; with MYB mRNA (setting [2]), over 10000 nM; in the test on Target C (setting [1]), over 10000 nM; in the test on SMN2 mRNA (setting [1]), 1000 to 10000 nM. The half-maximal activity concentration (AC50) in the test on MYB mRNA (setting [3]) was over 10000 nM.

On to `Cc1cn2cc(-c3cc(F)c4nn(C5CCNCC5)cc4c3)cc(F)c2n1` [Compound 129, 7-fluoro-5-(8-fluoro-2-methylimidazo[1,2-a]pyridin-6-yl)-2-(piperidin-4-yl)-2H-indazole], for which the IC50 is 100 to 1000 nM in the test on MYB mRNA (setting [1]), 100 to 1000 nM with MYB mRNA (setting [2]), 100 to 1000 nM with Target C (setting [1]) and under 100 nM in the test with SMN2 mRNA (setting [1]). Further, in the test on MYB mRNA (setting [3]), the half-maximal activity concentration (AC50) was 100 to 1000 nM.

With `CCN1CCC(n2cc3cc(-c4cc(C)c5nc(C)cn5n4)cc(F)c3n2)CC1` [Compound 146, 6-[2-(1-ethyl-4-piperidyl)-7-fluoro-indazol-5-yl]-2,8-dimethyl-imidazo[1,2-b]pyridazine], the IC50 was 100 to 1000 nM with MYB mRNA (setting [1]), 100 to 1000 nM with MYB mRNA (setting [2]), 100 to 1000 nM in the test on Target C (setting [1]) and under 100 nM with SMN2 mRNA (setting [1]). Besides, the AC50 in the test with MYB mRNA (setting [3]) is 100 to 1000 nM.
